Source: article PMC10920834, “Synthesis, anticancer activity, and molecular docking of half-sandwich iron(II) cyclopentadienyl complexes with maleimide and phosphine or phosphite ligands” (Scientific Reports, 2024)

Key:
Assay type in all cases: cell-based, human
PBM cells = test: Cell viability resazurin assay, PBM cells; conditions: for viability of PBM cells relative to control: ± SD
Text: Peripheral blood mononuclear (PBM) cells were isolated from a leukocyte-buffy coat collected from the blood of healthy, non-smoking donors at the Blood Bank in Lodz, Poland. The study protocol received approval from the Committee for Research on Human Subjects of the University of Lodz (17/KBBN-UŁ/III/2019). The initial step of isolation process involved mixing buffy coats with PBS in a 1:1 ratio. Subsequently, the mixture was centrifuged using a density gradient of Lymphosep (Cytogen, Zgierz, Poland) at 2200 RPM for 20 min, employing the lowest values for acceleration and deceleration. PBM cells were collected and washed three times by centrifugation with 1 × PBS. Following isolation, the cells were suspended in RPMI 1640 medium.
(§1) Firstly, resazurin salt powder was dissolved in sterile 1 × PBS. Cells were then seeded on the 96-well plates in the count of 1 × 10^4 in the case of HL-60 cells and of 5 × 10^4 for PBM cells and of 5 × 10^3 for A549 cells per well. A549 cells were seeded 24 h prior to treatment with the complexes to allow cell adherence to 96-well plate. Iron(II) complexes were added to wells to obtain final concentrations of 0.5, 1, 2.5, 5, 10, 25, 50, 100 and 250 μM. Subsequently, plates were incubated at 37 °C in 5% CO2 for 2 h and 24 h. After that 10 μl of resazurin salt was added to each well and plates again were incubated in 37 °C in 5% CO2 for 2 h. Finally, fluorescence was measured with microplate reader Synergy HT (Bio-Tek Instruments, USA) using an excitation wavelength of 530/25 and an emission wavelength of 590/35 nm. The effects of iron(II) complexes were calculated as the percentage of control fluorescence. IC50 (half maximal inhibitory concentration) values were calculated using a website algorithm (https://www.aatbio.com/tools/ic50-calculator). All assays were performed in octuplicate.

HL-60 cells = test: Cell viability resazurin assay, HL-60 cells; conditions: for viability of HL-60 cells relative to control: ± SD
Procedure: (§2) The A549 (human non-small cell lung cancer) cell line was obtained from the American Type Culture Collection (ATCC) and cultured in Dulbecco's Modified Eagle Medium (DMEM) with 10% fetal bovine serum (FBS), 2 mM L-Glutamine, 25 mM HEPES and penicillin/streptomycin solution (100 U/ml and 100 µg/ml, respectively). The HL-60 (human promyelocytic leukemia) cell line was also obtained from the American Type Culture Collection (ATCC) and cultured in Iscove’s Modified Dulbecco's Medium (IMDM) with 15% fetal bovine serum (FBS), 2 mM L-Glutamine, 25 mM HEPES and penicillin/streptomycin solution (100 U/ml and 100 µg/ml, respectively). Both cell lines were cultured in flasks at 37 °C in 5% CO2 and sub-cultured every 2–3 days to maintain exponential growth.
as §1

A549 cells = test: Cell viability resazurin assay, A549 cells; conditions: for viability of A549 cells relative to control: ± SD
Procedure: as §2, §1

SMILES: O=C1C=CC(=O)[N-]1.[C-]#[O+].[Fe+2].c1cc[cH-]c1.c1ccc(P(c2ccccc2)c2ccccc2)cc1 [2a, CpFe(CO)(PPh3)(η^1-N-maleimidato)]
- viability of PBM cells relative to control (PBM cells; 2 h incubation, 0.5 µM): 98.55 ± 3.27%
- viability of PBM cells relative to control (PBM cells; 2 h incubation, 1 µM): 98.65 ± 4.06%
- viability of PBM cells relative to control (PBM cells; 2 h incubation, 2.5 µM): 98.07 ± 3.18%
- viability of PBM cells relative to control (PBM cells; 2 h incubation, 5 µM): 98.94 ± 2.53%
- viability of PBM cells relative to control (PBM cells; 2 h incubation, 10 µM): 101.13 ± 3.14%
- viability of PBM cells relative to control (PBM cells; 2 h incubation, 25 µM): 102.46 ± 3.1%
- viability of PBM cells relative to control (PBM cells; 2 h incubation, 50 µM): 102.7 ± 2.19%
- viability of PBM cells relative to control (PBM cells; 2 h incubation, 100 µM): 104.68 ± 1.6%
- viability of PBM cells relative to control (PBM cells; 2 h incubation, 250 µM): 104.85 ± 1.37%
- IC50 (PBM cells; 24 h incubation): 61.4 µM
- viability of PBM cells relative to control (PBM cells; 24 h incubation, 0.5 µM): 101.47 ± 3.95%
- viability of PBM cells relative to control (PBM cells; 24 h incubation, 1 µM): 98.54 ± 1.78%
- viability of PBM cells relative to control (PBM cells; 24 h incubation, 2.5 µM): 101.97 ± 3.08%
- viability of PBM cells relative to control (PBM cells; 24 h incubation, 5 µM): 102.32 ± 1.76%
- viability of PBM cells relative to control (PBM cells; 24 h incubation, 10 µM): 88.22 ± 1.4%
- viability of PBM cells relative to control (PBM cells; 24 h incubation, 25 µM): 64.32 ± 0.17%
- viability of PBM cells relative to control (PBM cells; 24 h incubation, 50 µM): 55.37 ± 0.71%
- viability of PBM cells relative to control (PBM cells; 24 h incubation, 100 µM): 38.14 ± 0.33%
- viability of PBM cells relative to control (PBM cells; 24 h incubation, 250 µM): 32.79 ± 1.16%
- viability of HL-60 cells relative to control (HL-60 cells; 2 h incubation, 0.5 µM): 104.08 ± 2.11%
- viability of HL-60 cells relative to control (HL-60 cells; 2 h incubation, 1 µM): 103.34 ± 3.15%
- viability of HL-60 cells relative to control (HL-60 cells; 2 h incubation, 2.5 µM): 103.43 ± 2.81%
- viability of HL-60 cells relative to control (HL-60 cells; 2 h incubation, 5 µM): 108.69 ± 1.98%
- viability of HL-60 cells relative to control (HL-60 cells; 2 h incubation, 10 µM): 115.82 ± 2.26%
- viability of HL-60 cells relative to control (HL-60 cells; 2 h incubation, 25 µM): 120.78 ± 3.7%
- viability of HL-60 cells relative to control (HL-60 cells; 2 h incubation, 50 µM): 118.68 ± 5.5%
- viability of HL-60 cells relative to control (HL-60 cells; 2 h incubation, 100 µM): 116.98 ± 3.65%
- viability of HL-60 cells relative to control (HL-60 cells; 2 h incubation, 250 µM): 113.31 ± 3.08%
- IC50 (HL-60 cells; 24 h incubation): 14.8 µM
- viability of HL-60 cells relative to control (HL-60 cells; 24 h incubation, 0.5 µM): 103.09 ± 2.54%
- viability of HL-60 cells relative to control (HL-60 cells; 24 h incubation, 1 µM): 104.21 ± 1.11%
- viability of HL-60 cells relative to control (HL-60 cells; 24 h incubation, 2.5 µM): 100.69 ± 4.9%
- viability of HL-60 cells relative to control (HL-60 cells; 24 h incubation, 5 µM): 79.99 ± 2.5%
- viability of HL-60 cells relative to control (HL-60 cells; 24 h incubation, 10 µM): 52.57 ± 0.94%
- viability of HL-60 cells relative to control (HL-60 cells; 24 h incubation, 25 µM): 15.3 ± 1.21%
- viability of HL-60 cells relative to control (HL-60 cells; 24 h incubation, 50 µM): 10.1 ± 0.23%
- viability of HL-60 cells relative to control (HL-60 cells; 24 h incubation, 100 µM): 10.31 ± 0.23%
- viability of HL-60 cells relative to control (HL-60 cells; 24 h incubation, 250 µM): 8.4 ± 0.12%
- viability of A549 cells relative to control (A549 cells; 2 h incubation, 0.5 µM): 84.75 ± 11.62%
- viability of A549 cells relative to control (A549 cells; 2 h incubation, 1 µM): 71.98 ± 10.47%
- viability of A549 cells relative to control (A549 cells; 2 h incubation, 2.5 µM): 67.99 ± 8.45%
- viability of A549 cells relative to control (A549 cells; 2 h incubation, 5 µM): 63.83 ± 8.57%
- viability of A549 cells relative to control (A549 cells; 2 h incubation, 10 µM): 64.49 ± 7.71%
- viability of A549 cells relative to control (A549 cells; 2 h incubation, 25 µM): 64.05 ± 10.66%
- viability of A549 cells relative to control (A549 cells; 2 h incubation, 50 µM): 71.32 ± 8.08%
- viability of A549 cells relative to control (A549 cells; 2 h incubation, 100 µM): 68.25 ± 7.97%
- viability of A549 cells relative to control (A549 cells; 2 h incubation, 250 µM): 57.40 ± 11.79%
- IC50 (A549 cells; 24 h incubation): > 250 µM
- cytotoxicity against A549 cells, in words (A549 cells; 24 h incubation): did not show cytotoxicity
- viability of A549 cells relative to control (A549 cells; 24 h incubation, 0.5 µM): 73.24 ± 14.30%
- viability of A549 cells relative to control (A549 cells; 24 h incubation, 1 µM): 63.60 ± 12.84%
- viability of A549 cells relative to control (A549 cells; 24 h incubation, 2.5 µM): 68.69 ± 13.05%
- viability of A549 cells relative to control (A549 cells; 24 h incubation, 5 µM): 65.32 ± 9.49%
- viability of A549 cells relative to control (A549 cells; 24 h incubation, 10 µM): 114.65 ± 23.41%
- viability of A549 cells relative to control (A549 cells; 24 h incubation, 25 µM): 117.99 ± 19.59%
- viability of A549 cells relative to control (A549 cells; 24 h incubation, 50 µM): 105.46 ± 17.32%
- viability of A549 cells relative to control (A549 cells; 24 h incubation, 100 µM): 120.77 ± 9.93%
- viability of A549 cells relative to control (A549 cells; 24 h incubation, 250 µM): 90.11 ± 9.87%
- A549 cell viability, increase with increasing concentrations to (A549 cells; 24 h incubation, concentration not given): 120%
